What was measured:
[1] = system: sodium arsenite neuro-behavioral neurotransmission toxicity; settings: rats, arsenite 20 mg/kg for 28 days; oral curcumin 100 mg/kg daily × 28 days; cited from earlier work
[2] = Brain tissue and plasma curcumin levels in rats after intravenous bolus injection (HPLC); format: in vivo, Sprague-Dawley rats; settings: intravenous curcumin formulations
[3] = system: Alzheimer's Disease mice (ALCL3 orally and D-galactose IP for 90 days); settings: cited from earlier work
[4] = system: homocysteine directly injected into the hippocampus; settings: intraperitoneal curcumin; cited from earlier work
6-OHDA toxicity = settings: rat; cited from earlier work
[5] = system: murine multipotent neural progenitor cells (NPC); settings: cited from earlier work
[6] = system: chronic unpredictable mild stress (CUMS); settings: CUMS rats; cited from earlier work
PC12 cells = settings: cultured PC12 cells; cited from earlier work

COc1cc(C=CC(=O)CC(=O)C=Cc2ccc(O)c(OC)c2)ccc1O [curcumin, 1,7-bis(4-hydroxy-3-methoxyphenyl)-1,6-heptadiene-3,5-dione]
Effect on arsenite-induced deleterious effects [1]: counteracted
Curcumin detectible in the hippocampus, brainstem and striatum, share of dose [2]: less than 0.5 % of the total injected dose
Memory ability, step-through test [3]: improves the memory ability
Activity against homocysteine injected into the hippocampus [4]: neuroprotective activity
Effect on 6-OHDA toxicity in striatum and Substantia Nigrum (6-OHDA toxicity): protects
Concentration that decreases proliferation of NPCs and cancer cells [5]: > 10 µM
Concentration that inhibits neurogenesis and neuroplasticity ([5]; hippocampus stem and neuronal progenitor cells, high concentration): 10 µM
Concentration that enhances / stimulates hippocampal neurogenesis ([5]; hippocampus stem and neuronal progenitor cells, low concentration): 500 nM
Concentration that increases NPC proliferation ([5]; ×24-48 h, NPC but not tumor cells): 0.1 to 0.5 µM
Effect on chronic unpredictable mild stress (CUMS) [6]: improves chronic unpredictable mild stress
Apoptosis induced by AlCl3 (PC12 cells): inhibits apoptosis
